Laboratory results from patent US9212201B2, “Antifungal and antiparasitic polyene macrolides” (priority 2010, dated 2015).
In brackets after ≈: the same amount, converted by molar mass. Like-named read-outs stand apart in the source and are kept apart here.

Key:
Water solubility = assay type: physicochemical; conditions: in words
C. albicans = assay: In vitro antifungal susceptibility CLSI M27-A2 (MIC, MFC); assay type: cell-based; conditions: C. albicans (10)
C. parapsilosis = assay: as above; assay type: cell-based; conditions: C. parapsilosis (10)
C. krusei = assay: as above; assay type: cell-based; conditions: C. krusei (10)
C. rugosa = assay: as above; assay type: cell-based; conditions: C. rugosa (2)
C. dubliniensis = assay: In vitro antifungal susceptibility CLSI M27-A2 (MIC); assay type: cell-based; conditions: C. dubliniensis (5)
Description: In addition, MFC ([…]) was done for each species. The geometric mean (GM) was calculated for each isolate using all three results. All testing was performed in triplicate to verify the reproducibility of the data.
Eighty-three Candida strains were evaluated. This included 12 different Candida species, which are the species that are most commonly involved in the majority of candidal infections in humans. The species include ten isolates of C. albicans, C. glabrata, C. parapsilosis, C. tropicalis, C. krusei, C. lusitaniae, and C. kefyr, along with five isolates of C. dubliniensis, and two isolates each of C. guilliermondii and C. rugosa. In addition, there was also one isolate each of C. sake, C. lipolytica, C. sphaerica and C. norvegica.

Blastomyces dermatitidis = assay: Broth macrodilution MIC/MFC against endemic fungal pathogens; assay type: cell-based; conditions: for MFC: >96% kill of the inoculum
Histoplasma capsulatum = assay type: cell-based; conditions: 4 of the H isolates
[1] = tested on: 14 clinical isolates: Coccidioides, Blastomyces, Histoplasma capsulatum, Paracoccidioides; assay type: cell-based; conditions: of 14 isolates
[2] = background statement; cited from earlier work
[3] = tested on: L. donovani intracellular amastigotes
[4] = human, in vivo; cited from earlier work
[5] = Blastomyces dermatitidis isolate 1
[6] = Blastomyces dermatitidis isolate 2

## C[C@@H]1[C@H](O)[C@@H](C)/C=C/C=C/C=C/C=C/C=C/C=C/C=C/[C@H](O[C@@H]2O[C@H](C)[C@@H](O)[C@H](N)[C@@H]2O)C[C@@H]2O[C@](O)(C[C@@H](O)C[C@@H](O)[C@H](O)CC[C@@H](O)C[C@@H](O)CC(=O)O[C@H]1C)C[C@H](O)[C@H]2C(=O)O [Amphotericin B, amphotericin B]
Water solubility
  Water solubility: insoluble
C. albicans
  GM (geometric mean MIC): 0.612 µg/mL
  MFC: 1 µg/mL (≈ 1.08 µM)
  MIC50: 0.5 µg/mL (≈ 0.541 µM)
  MIC90: 1 µg/mL (≈ 1.08 µM)
  MIC Range: 0.12 to 1 µg/mL
C. parapsilosis
  GM (geometric mean MIC): 0.7 µg/mL
  MFC: 2 µg/mL (≈ 2.16 µM)
  MIC50: 0.5 µg/mL (≈ 0.541 µM)
  MIC90: 1 µg/mL (≈ 1.08 µM)
  MIC Range: 0.5 to 1.0 µg/mL
C. krusei
  GM (geometric mean MIC): 1.29 µg/mL
  MFC: 2 µg/mL (≈ 2.16 µM)
  MIC50: 1 µg/mL (≈ 1.08 µM)
  MIC90: 2 µg/mL (≈ 2.16 µM)
  MIC Range: 0.5 to 2.0 µg/mL
C. krusei; listed as amphotericin B
  MIC50: 1.0 µg/mL (≈ 1.08 µM)
C. rugosa
  GM (geometric mean MIC): 0.83 µg/mL
  MFC: 2 µg/mL (≈ 2.16 µM)
  MIC Range: 0.5 to 1.0 µg/mL
C. dubliniensis
  GM (geometric mean MIC): 0.4 µg/mL
  MIC50: 0.5 µg/mL (≈ 0.541 µM)
  MIC90: 1 µg/mL (≈ 1.08 µM)
  MIC Range: 0.125 to 1 µg/mL
Blastomyces dermatitidis; [5]
  MIC: 2/2 mcg/mL
  MFC: 2/2 mcg/mL
Blastomyces dermatitidis; [6]
  MIC: 1/1 mcg/mL
  MFC: 1/1 mcg/mL
Histoplasma capsulatum
  MFC: 0.5 µg/mL (≈ 0.541 µM)
  MIC: 0.5 µg/mL (≈ 0.541 µM)
[1]
  cases in which MFCs equaled MICs: 11/14
[2]
  Water solubility: insoluble in water
[3]
  IC50: 0.05 µM
[4]
  patients with nephrotoxicity: ≤ 80%
